From US6231887A, “Pharmaceutical composition for acidic lipophilic compounds in a form of a self-emulsifying formulation” (priority 1998, dated 2001)

Key:
[1] = Aqueous solubility in buffer; assay type: physicochemical; settings: buffer of pH 6.5 (close to the pH of the intestine), free acid
retroviral protease = settings: qualitative statement; compounds disclosed in WO 95/30670; cited from earlier work

In the case of CCC[C@@]1(CCc2ccccc2)CC(O)=C([C@H](CC)c2cccc(NS(=O)(=O)c3ccc(C(F)(F)F)cn3)c2)C(=O)O1 [compound of formula I], the solubility [1] is given as about 1 µg/mL and the “effectiveness as an inhibitor of retroviral protease” value (retroviral protease) is given as “especially effective”.
